{"source": "patent US20250108135A1", "about": "“TERAGNOSTIC METHOD FOR CANCER PATIENTS” (priority 2022, published 2025)", "key": {"[1]": {"experiment": "Effective dose of the diagnostic 64CuCl2 administration", "format": "in vivo, human", "settings": "diagnostic dose 370-925 MBq", "excerpt": "Patients with tumor received ^64CuCl2 at a dose between 370-925 MBq to ensure appropriate image quality. The mean effective dose for ^64CuCl2 calculated is 20 mSv per exam, which is aligned with the ones from the conventional PET imaging."}, "glioblastoma": {"tested_on": "glioblastoma", "experiment": "Response to 64CuCl2 treatment in glioblastoma patients (MRI, RANO criteria)", "format": "in vivo, human", "procedure": "A glioblastoma patient of 70 kg that belongs to the class of recurrent glioblastoma. The patient underwent surgery, radiotherapy and chemotherapy and after that experienced recurrence. Standard treatment are not effective in this setting therefore the patient received a diagnostic dose of ^64CuCl2 equal to 925 MBq. After 1 h from administration a PET/CT scan is performed. The patient resulted positive for copper lesion at the diagnostic dose and started treatment\nThe treatment with ^64CuCl2 (2,775 MBq/mL) for intravenous use by injection followed this scheme and the patient received once a week: • 1st dose=4,810 MBq, 2nd dose=4,810 MBq, 3rd dose=4,810 MBq, 4th dose=4,810 MBq, 5th dose=4,810 MBq, 6th dose=4,810 MBq, 7th dose=4,810 MBq\nThe patient (71 Kg) underwent surgery, radiotherapy and chemotherapy and after that experienced recurrence. Standard treatments are not effective in this setting therefore the patient received a diagnostic dose of ^64CuCl2 equal to 925 MBq. After 1 h from administration a PET/CT scan is performed. The patient resulted positive for copper lesion at the diagnostic dose and started treatment (^64CuCl2 277 MBq/mL for intravenous by infusion).\nThe treatment followed this scheme and the patient received once a week: • 1st dose=1,850 MBq, 2nd dose=2,460 MBq, 3rd dose=2,922 MBq, 4th dose=3,292 MBq, 5th dose=3,606 MBq, 6th dose=3,865 MBq, 7th dose=4,068 MBq.\nThe phase I clinical trial on glioblastoma is the first study evaluating preliminary efficacy of ^64CuCl2 2,775 MBq/mL as therapeutic agent. This determination was performed on 10 patients, at the end of the 7th therapy dose, at 90th day (after 3 months of the last treatment) and whenever possible at 180th day to obtain a wider evaluation of the disease status. Data cut-off was performed after 5 patients. The response to treatment, in term of anti-tumor activity of ^64CuCl2, was measured by MRI, assessed according to the RANO criteria (Response Assessment in Neuro-Oncology, see Wen PY et al.) and defined as complete response (disappearance of tumor) partial response (reduction) and stable disease (non-progression of GBM). Among these patients 4 resulted responders and 1 non-responder. […] Tumor volume reduction ≥50% was also shown in two cases after three months from the last treatment, and in one patient after 6 months from the last treatment."}, "[2]": {"tested_on": "U87MG, PC-3, CAMA1, C8161, HT-29, A549 cancer cell lines", "experiment": "64CuCl2 tumor cell uptake (internalization) at different radioconcentrations", "format": "cell-based", "settings": "4 h after treatment; same dose of radioactivity; higher radioconcentrations (2,775 and 1,850 MBq/mL) compared to the lowest (925 MBq/mL); all the cell lines", "procedure": "(§1) The capability resulted improved at a radioconcentration higher than 925 MBq/mL compared to lower concentrations. This is the first time that the impact of the drug radioconcentration has been correlated to the cell-killing effect for the translation to humans. The inventor performed internalization and survival studies on different cancer cell lines (U87MG [glioblastoma], PC-3[prostate cancer], CAMA1 [breast cancer], C8161[melanoma], HT-29[colorectal cancer]), A549 [lung cancer] applying the same amount (dose) of radioactivity (eg. 10 MBq), but at different radioconcentrations, e.g. 2,775 MBq/mL vs. 1,850 MBq/mL, vs. 925MBq/mL.\n(§2) This effect of the radioconcentration could have a great impact on patients for the optimization of treatment. In fact, in consideration of the mechanism through which ^64Cu reaches the tumor cell, the different radioconcentrations, that is to say “the number of nuclear disintegrations per unit time in a given amount of the preparation”, can influence the biodistribution in vivo. […]\nFIG. 1—Impact of different radioconcentrations on tumor cell uptake ^64CuCl2 cell uptake in different tumor cell lines U87MG, PC-3, CAMA1, C8161, HT-29. Cell uptake was evaluated treating cells at the same dosage (15 MBq/dish 100 mm), but at three different radioconcentrations C1=925 MBq/mL, C2=1,850 MBq/mL, C3=2,775 MBq/mL. Values are expressed as mean ±SEM."}, "U-87 GM cells": {"tested_on": "U-87 GM cells", "settings": "nude mice implanted with U-87 GM cells; cited from earlier work"}, "[3]": {"tested_on": "Human GBM cell lines (LI) PARI, ADF and T98G", "settings": "time and dose dependent; cited from earlier work"}, "B16F10 or A375M tumors": {"tested_on": "B16F10 or A375M tumors", "settings": "vs control group, cited from earlier work"}, "prostate cancer": {"tested_on": "prostate cancer", "experiment": "Response to 64CuCl2 treatment in prostate cancer patients (PET/CT)", "format": "in vivo, human", "procedure": "The patient at initial diagnosis had local tumor, and after surgery (radical prostatectomy) they underwent radiotherapy and chemotherapy. However, they experienced local recurrence plus a bone metastatic lesion. After receiving all standard treatments, the patient received a diagnostic dose of ^64CuCl2 equal to 925 MBq. After 1 h from administration a PET/CT scan is performed. The patient resulted positive for copper lesion at the diagnostic dose and started treatment. […] The PET/CT acquired the same day of the 4th therapeutic administration and the PET/CT acquired before treatment beginning were analyzed by two independent observers (a third observer expressed another evaluation only in case of discrepancies)."}, "[4]": {"tested_on": "5 human neoplastic cell lines (ovarian cancer, head and neck, neuroendocrine lung carcinoma, colorectal cancer, glioblastoma)", "settings": "microPET after administration of 64CuCl2; cited from earlier work"}, "[5]": {"tested_on": "PCa spheroids (derived from 22RV1, DU145, and LNCaP cells)", "settings": "in vitro; cited from earlier work"}, "[6]": {"experiment": "Biodistribution, pharmacokinetics, dosimetry and safety in glioblastoma patients", "format": "in vivo, human", "procedure": "Six glioblastoma patients were evaluated for safety profile and the study of biodistribution was conducted including evaluation of PET/CT scans after first daily dose administration of radiopharmaceutical composition having a radioconcentration of 2,775 MBq/mL (day 0), at different time points 1 h, 4 h, 24 h, 48 h after injection and pharmacokinetic (PK) radioactivity on blood samples at different time points of administration."}, "U87MG": {"tested_on": "U87MG", "experiment": "Cell survival (cell-killing effect) at different radioconcentrations", "format": "cell-based", "procedure": "as §1, §2\nSurvival curve of U87MG treated with the same dosage range but at three different concentrations C1=925 MBq/mL, C2=1,850 MBq/mL, C3=2,775 MBq/mL. Value are expressed as mean ±SEM. […]"}, "[7]": {"settings": "phase I glioblastoma, 2,775 MBq/mL, data cut-off after 5 patients, 7 treatments"}, "[8]": {"settings": "six glioblastoma patients, 2,775 MBq/mL"}}}
{"smiles": "[Cl][Cu][Cl]", "note": "[^64CuCl2, Copper Chloride]", "values": [{"measurement": "mean effective dose per exam", "setting": "[1]", "result": 20, "unit": "mSv"}, {"measurement": "patients with tumor volume reduction ≥50%", "setting": "glioblastoma; 6 months from the last treatment", "result": "one"}, {"measurement": "patients with reduction of tumor volume ≥50% compared to baseline MRI", "setting": "glioblastoma; day 42 evaluation", "result": "one"}, {"measurement": "patients with stable disease", "setting": "glioblastoma; day 42 evaluation, responder patients", "result": 3, "unit": "patients"}, {"measurement": "patients with stable disease", "setting": "glioblastoma; day 90", "result": 2, "unit": "patients"}, {"measurement": "number of non-responders", "setting": "glioblastoma; [7]", "result": 1}, {"measurement": "number of responders", "setting": "glioblastoma; [7]", "result": 4}, {"measurement": "response to the treatment", "setting": "glioblastoma; recurrent glioblastoma patient (71 Kg), 277 MBq/mL i.v. infusion, 7 increasing doses 1,850-4,068 MBq once a week", "result": "responder"}, {"measurement": "cases with tumor volume reduction ≥50%", "setting": "glioblastoma; three months from the last treatment", "result": "two"}, {"measurement": "patients with stable disease", "setting": "glioblastoma; up to six months after treatment", "result": "one"}, {"measurement": "cell uptake", "setting": "[2]", "result": "significantly greater"}, {"measurement": "tumor volume, in some cases", "setting": "U-87 GM cells", "result": "complete regression"}, {"measurement": "modulation of cell viability", "setting": "[3]", "result": "dose dependent"}, {"measurement": "tumor growth", "setting": "B16F10 or A375M tumors; B16F10 and A375M models, one dose about 74 MBq", "result": "much slower than that of the control group"}, {"measurement": "survival", "setting": "B16F10 or A375M tumors; mice bearing B16F10 or A375M tumors", "result": "significantly improved survival"}, {"measurement": "volume of lesions (PET/CT)", "setting": "prostate cancer; five prostate cancer patients, after 4 administrations, 2,775 MBq/mL solution for injection", "result": "a reduction or a non-progression"}, {"measurement": "tumor lesions on the bone, PET/CT before and after treatment", "setting": "prostate cancer; metastatic prostate cancer patient, 2,775 MBq/mL injection, 7 doses of 4,810 MBq once a week", "result": "reduction of the tumor lesions on the bone"}, {"measurement": "uptake of 64Cu2+ by neoplastic tissues", "setting": "[4]", "result": "significant uptake"}, {"measurement": "growth of spheroids", "setting": "[5]", "result": "reduce their growth"}, {"measurement": "treatment related toxicities associated to liver/kidney and red marrow distribution", "setting": "[6]; glioblastoma patients", "result": "No treatment related toxicities were registered"}, {"measurement": "biodistribution (organ uptake)", "setting": "[6]; [8]", "result": "significant uptake in the liver (as expected) followed by kidney and L2-L4 regions"}, {"measurement": "effective dose, median", "setting": "[6]; [8]", "result": 26.08, "unit": "mSv"}, {"measurement": "64Cu uptake over time (pharmacokinetic profile)", "setting": "[6]; six glioblastoma patients, 2,775 MBq/mL, PET/CT 1 h, 4 h, 24 h, 48 h after injection", "result": "increases up to 4 h post-injection and decreased thereafter"}, {"measurement": "cell-killing effect", "setting": "U87MG; 24 h after treatment, 2,775 MBq/mL, U87MG survival curve", "result": "increased cell-killing effect"}, {"measurement": "improved cell killing-effect compared to C1", "setting": "U87MG; C3=2,775 MBq/mL vs C1=925 MBq/mL at D4=1.7 MBq and D5=3.4 MBq", "result": "about 30%"}]}
